Our source for the kinact/Ki values is publication PMC4992173, “Divergent synthesis and identification of the cellular targets of deoxyelephantopins” (Nature Communications, 2016).

SMILES strings stand for the structures.

The target in the experiment is human PPARγ. In words: Gel-based PPARγ binding kinetics (Kitz and Wilson). Conditions: recombinant PPARγ, 10-60 min preincubation, 24c-Cy3 readout, n=3. As to the method:
Briefly, recombinant human PPARγ was pretreated with compounds at 20 μM concentration followed by the probe 24c-Cy3. […] Assuming covalent bond formation with PPARγ, we applied the method of Kitz and Wilson[52] to determine the kinetic values Ki and kinact for deoxyelephantopin and compound 19a (Supplementary Fig. 17). We observed clear time-dependent shift in half-maximal inhibitory concentration (IC50) values characteristic for an irreversible mode of binding.
Supplementary figure 17: Determination of the kinetic values Ki and kinact for 19a and DEP as binders to human PPARγ (n = 3).
Supplementary figure 18: F γ
24c-Cy3 after pretreatment with 10 mM IAA or DMSO. […]
for 30 min. at 37 °C under 5% CO2 atmosphere. Cells were washed one time with PBS and fixed with 4% paraformaldehyde for 20 min. at r.t. Coverslips were washed three times with PBS, one time with water and then mounted on a slide with ProLong Gold antifade mountant with DAPI (Life Technologies). Cells were visualized with an LSM 700 confocal microscope […]
Annexin V and PI staining for cell microscopy. […]
In situ labeling experiments. […] Gels were visualized at 625 nm using a Hitachi FMBIO II Multi-View fluorescence scanner, then […]
visualization were performed as described above. Images were quantified with ImageJ and kinetics values were calculated using GraphPad Prism (V6.03). […]

Turning to `C=C(C)C(=O)O[C@H]1CC2=C[C@H](C/C=C\[C@H]3OC(=O)C(=C)[C@H]13)OC2=O` [19a], the kinact/Ki is 1,241 M^−1 min^−1. To `C=C(C)C(=O)O[C@H]1CC2=C[C@@H](C/C(C)=C/[C@H]3OC(=O)C(=C)[C@H]13)OC2=O` [deoxyelephantopin] belongs 680 M⁻¹ min⁻¹.
